In patent publication US7897643B2, “Biphenyl carboxylic acids and derivatives thereof” (Janssen Pharmaceutica N.V., priority 2007, dated 2011):
Read-outs that look alike come from different tables or passages of the source.

How the values were obtained:
[1] = biological target: T1, γ-secretase (Homo sapiens, UniProt P49768); assay: WTAPP cell assay Aβ42 (γ-secretase-modulating activity, SKNBE2 cells carrying APP 695 wild type); assay type: cell-based; details: for EC50: SKNBE2 cells carrying APP 695 wild type
T1 construct: endogenous in cells; host or cells: SKNBE2 cells carrying APP 695 wild type
Protocol: Screening of the Compounds of the Invention for γ-Secretase-Modulating Activity
Screening was carried out using SKNBE2 cells carrying the APP 695-wild type, grown in DMEM/NUT-mix F12 (HAM) provided by Gibco (cat no. 31330-38) containing 5% Serum/Fe supplemented with 1% non-essential amino acids.
Cells were grown to near confluency.
The screening was performed using the assay as described in Citron et al (1997) Nature Medicine 3: 67.

[2] = tested on: Aβ42; assay: In vivo mouse Aβ42 lowering (brain Aβ42 ELISA); details: oral dose 30 mg/kg, 4 hr time point
Description: To determine whether acute administration of an Aβ42 lowering agent would reduce Aβ42 levels in vivo, non-transgenic rodents, e.g. mice or rats were used. Alternatively, two to three month old Tg2576 mice expressing APP695 containing the “Swedish” variant can be used or a transgenic mouse model developed by Dr. Fred Van Leuven (K. U. Leuven, Belgium) and co-workers, with neuron-specific expression of a clinical mutant of the human amyloid precursor protein [V717I] (Moechars et al., 1999 J. Biol. Chem. 274, 6483). Young transgenic mice have high levels of Aβ in the brain but no detectable Aβ deposition. At approximately 6-8 months of age , the transgenic mice start to display spontaneous, progressive accumulation of β-amyloid (Aβ) in the brain, eventually resulting in amyloid plaques within the subiculum, hippocampus and cortex. Animals treated with the Aβ42 lowering agent will be examined and compared to those untreated or treated with vehicle and brain levels of soluble Aβ42 and total Aβ would be quantitated by standard techniques, for example, using ELISA. Treatment periods may vary from hours to days and will be adjusted based on the results of the Aβ42 lowering once a time course of onset of effect can be established.
(§1) A typical protocol for measuring Aβ42 lowering in vivo is shown but it is only one of many variations that could be used to optimize the levels of detectable Aβ. For example, Aβ42 lowering compounds as free acids or sodium salts were formulated in 5% of solutol in water or 20% hydroxypropyl β cyclodextrin. The Aβ42 lowering agents are administered as a single oral dose or by any acceptable route of administration e.g., three to four hours before sacrifice, determined empirically, and analysis or alternatively could be given over a course of days and the animals sacrificed three to four hours after the final dose is given.
(§2) The mice are anaesthetized with a mixture of Ketalar (Ketamin), Rompun (Xylazin 2%) and Atropin (2:1:1) and flushed trans-cardially with physiological serum at 4° C. Blood is collected at sacrifice. The blood collection is performed via a heart puncture during anesthesia in EDTA treated collection tubes. Blood is centrifuged at 4000 g for 5 minutes at 4° C. and the plasma recovered and flash frozen for later analysis. The brain is removed from the cranium and hindbrain and forebrain are separated with a cut in the coronal/frontal plane. The cerebellum is removed and retained for quantitative analysis of test compound levels. The forebrain is divided evenly into left and right hemisphere by using a midline sagital cut.
Both hemispheres are immediately immersed in liquid nitrogen and stored at −70° C. until homogenization for biochemical assays. […]

[3] = biological target: T2, Cyclooxygenase-2 (Cox-2) (Ovis aries, UniProt P79208); assay: Colorimetric Cox inhibitor screening assay (Cayman), Cox-2; assay type: biochemical
T2 construct: purchased Cayman Chemical Company 760111
T2 sequence (P79208 17-603): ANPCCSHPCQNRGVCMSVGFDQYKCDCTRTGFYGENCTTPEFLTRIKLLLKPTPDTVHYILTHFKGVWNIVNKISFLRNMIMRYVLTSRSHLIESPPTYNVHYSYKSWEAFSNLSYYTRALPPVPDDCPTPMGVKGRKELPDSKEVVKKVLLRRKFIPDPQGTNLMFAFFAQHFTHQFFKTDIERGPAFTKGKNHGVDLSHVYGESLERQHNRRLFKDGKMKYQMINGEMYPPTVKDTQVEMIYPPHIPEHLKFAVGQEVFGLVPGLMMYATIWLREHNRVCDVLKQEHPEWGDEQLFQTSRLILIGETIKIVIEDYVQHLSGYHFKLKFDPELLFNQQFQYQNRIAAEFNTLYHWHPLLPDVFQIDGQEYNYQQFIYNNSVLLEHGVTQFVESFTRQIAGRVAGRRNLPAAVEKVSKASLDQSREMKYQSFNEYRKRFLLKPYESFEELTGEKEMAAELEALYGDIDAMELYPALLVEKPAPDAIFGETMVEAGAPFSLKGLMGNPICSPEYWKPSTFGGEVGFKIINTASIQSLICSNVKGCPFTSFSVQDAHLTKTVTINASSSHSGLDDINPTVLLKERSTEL
Protocol: (§3) Determination of the Effect of the Compounds According to the Invention on Cyclooxygenase-1 and Cyclooxygenase-2 (Cox-1, Cox-2)
(§4) Inhibition of Cox-1 and Cox-2 was determined using the Colorimetric Cox inhibitor screening assay provided by Cayman Chemical Company, Ann Arbor, Mich., USA. (Cat. No. 760111) according to manufacturer's instructions.

[4] = biological target: T3, Cyclooxygenase-1 (Cox-1) (Ovis aries, UniProt P05979); assay: Colorimetric Cox inhibitor screening assay (Cayman), Cox-1; assay type: biochemical
T3 construct: purchased Cayman Chemical Company 760111
T3 sequence (P05979 25-600): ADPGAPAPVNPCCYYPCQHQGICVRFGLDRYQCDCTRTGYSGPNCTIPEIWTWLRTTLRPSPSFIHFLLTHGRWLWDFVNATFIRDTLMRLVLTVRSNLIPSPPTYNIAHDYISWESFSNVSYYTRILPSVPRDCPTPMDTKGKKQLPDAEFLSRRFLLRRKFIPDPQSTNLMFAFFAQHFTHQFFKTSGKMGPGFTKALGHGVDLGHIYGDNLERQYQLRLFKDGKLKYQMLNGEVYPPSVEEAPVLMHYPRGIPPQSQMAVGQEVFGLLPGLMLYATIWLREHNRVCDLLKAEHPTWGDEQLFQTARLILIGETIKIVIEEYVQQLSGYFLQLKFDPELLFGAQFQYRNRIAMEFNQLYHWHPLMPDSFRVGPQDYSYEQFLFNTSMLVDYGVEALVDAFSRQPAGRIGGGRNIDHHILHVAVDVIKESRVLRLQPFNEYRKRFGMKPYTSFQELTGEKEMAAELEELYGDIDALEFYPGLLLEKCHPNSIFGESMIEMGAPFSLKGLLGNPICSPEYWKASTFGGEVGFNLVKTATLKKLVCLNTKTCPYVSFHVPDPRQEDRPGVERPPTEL
Protocol: as §3, §4

[5] = Brain and plasma compound concentration in mouse after oral dose; assay type: in vivo; details: 30 mg/kg, 30 mpk po
Protocol: as §1, §2
Oral dose 30 mg/kg at 4 hr Time Point

[6] = brain, read-out: Brain concentration @ 30 mpk po (4 hr)
[7] = plasma, read-out: Plasma concentration @ 30 mpk po (4 hr)

| SMILES | EC50 [1] | In vivo mouse Aβ42 efficacy @ 30 mpk (4 hr) inhibition [2] | inhibition at 100 µM [3] | inhibition at 100 µM [4] | concentration at 4 h [5, 6] | concentration at 4 h [5, 7] | IC50 ([1]; comparison compound, read-out: IC50 in the above WTAPP cell assay) |
| --- | --- | --- | --- | --- | --- | --- | --- |
| CC(C)C[C@@H](C(=O)O)c1cc(OCc2cc(F)cc(F)c2)cc(-c2ccc(C(F)(F)F)cc2)c1 [Compound 1, (R) 2-[5-(3,5-Difluoro-benzyloxy)-4′-trifluoromethyl-biphenyl-3-yl]-4-methyl-pentanoic acid] | 0.525 µM | 50% | < 50% | < 50% | 6.9 ± 2.3 µM | 6.9 ± 12.2 µM | – |
| CCC[C@H](C(=O)O)c1cc(OCc2ccccc2)cc(-c2ccc(C(F)(F)F)cc2)c1 [reference compound] | – | – | – | – | – | – | 2.5 µM |
| CC(C)CC(C(=O)O)c1cc(OCc2cc(F)cc(F)c2)cc(-c2ccc(Cl)c(C(F)(F)F)c2)c1 (stereo not shown) [Compound 4, 2-[4′-Chloro-5-(3,5-difluoro-2-benzyloxy)-3′-trifluoromethyl-biphenyl-3-yl]-4-methyl-pentanoic acid] | 0.19 µM | 42% | – | – | 6.5 ± 1.5 µM | 6.5 ± 6.3 µM | – |
| CC(C)C[C@H](C(=O)O)c1cc(OCc2cc(F)cc(F)c2)cc(-c2ccc(C(F)(F)F)cc2)c1 [Compound 2, (S)-2-[5-(3,5-Difluoro-benzyloxy)-4′-trifluoromethyl-biphenyl-3-yl]-4-methyl-pentanoic acid] | 1.12 µM | 45% | – | – | 11.1 ± 2.8 µM | 11.1 ± 8.9 µM | – |
| CC(C)C[C@@H](C(=O)O)c1cc(OCc2ccc(F)cc2C(F)(F)F)cc(-c2ccc(C(F)(F)F)cc2)c1 [Compound 3, (R)-2-[5-(4-fluoro-2-trifluoromethyl-benzyloxy)-4′-trifluoromethyl-biphenyl-3-yl]-4-methyl-pentanoic acid] | 0.316 µM | 25% | – | – | 5.1 ± 1.1 µM | 5.1 ± 2.8 µM | – |
